pIC50: −log10 of the molar value. Structures can show the parent of a compound that is named as a salt. Where two headings read alike, the source gives them in different places.
Columns and labels:
[1] = biological target: Wee-1 kinase (Homo sapiens (Human), UniProt P30291); test: Measurement of Wee-1 kinase activity (ADP-Glo); assay type: biochemical
Description: Method 1: Measurement of Wee-1 kinase activity
In the measurement of Wee-1 activity, a commercial peptide Poly(Lys Tyr(4:1)) hydrobromide was purchased from Sigma Aldrich and used as the substrate. Activated Wee-1 kinase was purchased from Invitrogen (PV3817) and an ADP-Glo luminescent kit was purchased from Promega.
All reactions took place in […] volumes in reaction buffer containing 40 mM Tris-HCl and 20 mM magnesium chloride, supplemented with 0.1 mg/mL bovine serum albumin and 2 mM DTT. Compounds were serially diluted in buffer and 5 μL of each concentration pipetted into a white 384 well plate (Sigma Aldrich M6186). A 5 μL aliquot of the Wee-1 enzyme was added to each well and the plate centrifuged for 1 min to ensure mixing of the enzyme and inhibitor.
The plate was incubated at room temperature for 30 minutes before the addition of 2.0 μg/mL of substrate and 30 μM ATP in a 5 μL aliquot. The plate was centrifuged for one minute and incubated for 1 h at RT.
15 μL of ADP-Glo stop reagent was added to each well to quench the reaction and deplete unconverted ATP. The plate was incubated for a further 40 min in the dark at RT.
30 μL of ADP-Glo kinase detection reagent was added to each well, converting ADP to ATP, catalysing the generation of luciferin by luciferase. The plate was shaken for 1 min, and incubated in the dark for an additional hour.
Luminescence from each well was detected using the Biotek Synergy4 HD plate reader and the percentage inhibition of kinase activity calculated for each inhibitor tested. Positive (kinase only) and negative (no kinase) controls were added to each plate to ensure specific interaction of kinase and inhibitor. The IC50 concentration for each inhibitor was calculated by plotting the percentage kinase inhibition against concentration of inhibitor and the curve generated by non-linear regression fitting.

[2] = system: phospho-cdc2 (Tyr15) in HT-29 cells; test: Effect on phosphorylation of cdc2 at Tyr15 in HT-29 cells (PathScan ELISA); assay type: cell-based; details: Homo sapiens, HT-29, 8 h; HT29 cells, eight hours incubation; read-out: HT29 pCDC2 activity
Description: Method 2: Determining the effect of compounds on the phosphorylation of cdc2 at Tyr15
The colorectal cancer cell lines HT-29 and HCT-116 were purchased from the ATCC and routinely maintained in McCoy's Medium (Invitrogen) supplemented with 10% Foetal Calf Serum.
The cells were trypsinised from their growing vessel and counted, 100 μL of cell suspension containing 6000 cells was pipetted into black 96 well Co-star plates and incubated overnight to allow adherence to the surface at a temperature of 37° C. and an atmosphere of 5% CO2. Test compounds were formulated in DMSO and diluted in foetal calf serum supplemented medium. Incubating medium was removed by aspiration and diluted drug supplemented medium added to each well.
The plate was returned to the incubator for an additional eight hours at 37° C. and an atmosphere of 5% CO2. Post incubation, the drug supplemented medium was aspirated from each well and the cells were washed once in ice-cold phosphate buffered saline (PBS). 100 μL of cell lysis buffer (Cell Signalling Technologies #9803) containing 20 mM Tris, 150 mM NaCl, 1 mM EDTA, 1 mM EGTA, 1% Triton-X100, 2.5 mM sodium pyrophosphate, 1 mM glycerophosphate, 1 mM Na3VO4 and 1 μg/mL leupeptin was added to each well of the 96 well plate and incubated at 4° C. for 30 min. The samples on the plate were snap frozen at −80° C. until required.
Immediately before the continuation of the assay, the sample plate was thawed and centrifuged at 4° C. for 10 min and the supernatant transferred to secondary tubes or 96 well plate.
Cell supernatant was mixed in a ratio of 1:1 with sample dilutent buffer and vortexed for one minute. 100 μL of diluted sample was pipetted into pre-coated plates containing a rabbit polyclonal antibody for phospho-cdc2 (Tyr15) (Cell Signalling Technologies PathScan kit #7176). The plate was sealed and incubated overnight at 4° C.
The plate seal was removed and the well contents aspirated, followed by 3×5 min washes with 200 μL of diluted wash buffer. Between each wash the plate was tapped firmly onto blotting paper to ensure the removal of all kit solution. 100 μL of kit detection antibody was added to each well and the plate re-sealed and incubated at 37° C. for 1 h. Post incubation the plate was washed and processed in a similar manner to that previously described.
100 μL of horseradish peroxidise-linked secondary antibody was added to each test well, the plate sealed and incubated for thirty minutes at 37° C. Post incubation, the plate was washed as previously stated, followed by the addition of 100 μL of 3,3′,5,5′ tetramethylbenzidine (TMB reagent). The plate was sealed and incubated at RT for 30 min.
100 μL of stop solution was added to each well and the underside of the plate wiped with a lint-free tissue, prior to spectrophotometric determination. Absorbance from each well was read at 450 nm within 30 min of the addition of the stop solution.
The percentage of phospho-cdc2 was calculated compared to DMSO control and plotted versus the concentration of inhibitor using GraphPad Prism. Data was fitted using non-linear regression analysis and IC50 values generated.

[3] = CLint estimates using human liver microsomes; assay type: in vitro ADME; details: pH 7.4, read-out: HLM activity (HLM CLint)
Description: Method for the Determination of CLint Estimates Using Human Liver Microsomes
Test compounds (final concentration=1 μM; final DMSO concentration=0.1%) were incubated in 0.1M phosphate buffer pH 7.4 with human liver microsomes (0.5 mg of protein/mL) at 37° C. Reactions were started by addition of NADPH in 0.1M phosphate buffer pH 7.4 (final concentration 1 mM). 40 μL aliquots were removed at 2, 5, 10, 15, 20, 30, 40 and 50 min. Reactions were quenched in 80 μL of ice-cold methanol. Samples were subsequently frozen overnight then centrifuged at 3500 rpm for 20 min at 4° C. The supernatants were removed and transferred into analytical plates and analysed by LC/MS/MS.
All samples were analysed on a Waters Acquity I-Class coupled to a Waters Xevo TQD mass spectrometer. A Waters BEH C18 2.1×50 mm 1.7 μm column was used and mobile phases were water and methanol containing 0.1% formic acid as modifier. Analysis was by multiple reaction monitoring and conditions were optimised for each test compound.
From a plot of ln peak area against time, the gradient of the line is determined. Subsequently, half-life and intrinsic clearance are calculated using the following equations.

[4] = biological target: human ether a go-go related gene (hERG) K+ channel (Homo sapiens (Human), UniProt Q12809); test: hERG inhibition, IonWorks patch clamp electrophysiology; assay type: cell-based; details: 8-point curve from 11 μM
Description: Compounds were tested for inhibition of the human ether a go-go related gene (hERG) K^+ channel using IonWorks patch clamp electrophysiology at Essen BioScience.

[5] = Human hepatocyte assay CLint; assay type: in vitro ADME; details: hepatocytes
Description: (§1) Compounds of the present invention have good stability in human and/or rat hepatocyte incubations. In particular, representative examples 7, 8, 13, 18, 20 have CLint of <20 μL/min/10^6 cells in a human hepatocyte assay and/or <40 μL/min/10^6 cells in a rat hepatocyte assay.

[6] = Rat hepatocyte assay CLint; assay type: in vitro ADME; details: hepatocytes
Description: as §1

[7] = Oral bioavailability in rat; details: in vivo
Text: Compounds of the present invention are orally bioavailable.

[8] = biological target: CYP3A4 (Homo sapiens (Human), UniProt P08684); test: Time dependent CYP inhibition: CYP3A4; assay type: in vitro ADME; details: 30 min pre incubation ±NADPH relative to direct inhibition IC50 with no pre-incubation
Text: (§2) Compounds of the present invention have no time dependent CYP inhibition.

[9] = biological target: CYP2C9 (Homo sapiens (Human), UniProt P11712); test: Time dependent CYP inhibition: CYP2C9; assay type: in vitro ADME; details: 30 min pre incubation ±NADPH relative to direct inhibition IC50 with no pre-incubation
Text: as §2

[10] = biological target: CYP2C19 (Homo sapiens (Human), UniProt P33261); test: Time dependent CYP inhibition: CYP2C19; assay type: in vitro ADME; details: 30 min pre incubation ±NADPH relative to direct inhibition IC50 with no pre-incubation
Text: as §2

[11] = biological target: CYP2D6 (Homo sapiens (Human), UniProt P10635); test: Time dependent CYP inhibition: CYP2D6; assay type: in vitro ADME; details: 30 min pre incubation ±NADPH relative to direct inhibition IC50 with no pre-incubation
Text: as §2

Chain of human ether a go-go related gene (hERG) K+ channel (Q12809 whole entry): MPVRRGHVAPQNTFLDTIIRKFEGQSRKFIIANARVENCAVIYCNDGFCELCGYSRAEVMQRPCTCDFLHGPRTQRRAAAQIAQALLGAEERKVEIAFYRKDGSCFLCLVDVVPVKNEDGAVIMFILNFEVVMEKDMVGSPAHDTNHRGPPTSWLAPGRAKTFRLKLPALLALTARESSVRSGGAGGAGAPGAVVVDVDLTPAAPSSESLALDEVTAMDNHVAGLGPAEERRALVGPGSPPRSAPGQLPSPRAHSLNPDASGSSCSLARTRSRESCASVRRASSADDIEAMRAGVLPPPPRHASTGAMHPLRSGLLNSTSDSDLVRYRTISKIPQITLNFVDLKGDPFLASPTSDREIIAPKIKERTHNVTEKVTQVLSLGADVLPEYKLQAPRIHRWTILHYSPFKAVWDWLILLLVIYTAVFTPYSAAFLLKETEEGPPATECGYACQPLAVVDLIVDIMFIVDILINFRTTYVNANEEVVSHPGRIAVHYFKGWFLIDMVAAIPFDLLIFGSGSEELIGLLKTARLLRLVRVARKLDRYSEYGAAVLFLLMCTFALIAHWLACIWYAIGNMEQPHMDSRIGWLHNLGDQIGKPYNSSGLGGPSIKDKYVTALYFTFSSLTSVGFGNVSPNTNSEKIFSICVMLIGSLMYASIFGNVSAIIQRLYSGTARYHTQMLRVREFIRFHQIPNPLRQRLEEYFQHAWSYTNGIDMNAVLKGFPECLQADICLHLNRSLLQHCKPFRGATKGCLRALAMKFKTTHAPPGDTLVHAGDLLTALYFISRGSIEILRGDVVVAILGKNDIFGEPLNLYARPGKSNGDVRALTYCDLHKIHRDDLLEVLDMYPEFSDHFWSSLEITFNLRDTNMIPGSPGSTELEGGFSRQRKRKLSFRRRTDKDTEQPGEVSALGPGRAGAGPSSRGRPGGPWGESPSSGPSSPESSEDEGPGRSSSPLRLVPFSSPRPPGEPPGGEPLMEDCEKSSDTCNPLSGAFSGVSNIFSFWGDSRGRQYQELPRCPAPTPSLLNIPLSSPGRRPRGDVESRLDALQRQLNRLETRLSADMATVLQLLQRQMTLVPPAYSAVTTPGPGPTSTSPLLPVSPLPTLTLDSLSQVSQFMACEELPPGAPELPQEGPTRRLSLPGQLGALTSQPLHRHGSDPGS
Chain of Wee-1 kinase (P30291 whole entry): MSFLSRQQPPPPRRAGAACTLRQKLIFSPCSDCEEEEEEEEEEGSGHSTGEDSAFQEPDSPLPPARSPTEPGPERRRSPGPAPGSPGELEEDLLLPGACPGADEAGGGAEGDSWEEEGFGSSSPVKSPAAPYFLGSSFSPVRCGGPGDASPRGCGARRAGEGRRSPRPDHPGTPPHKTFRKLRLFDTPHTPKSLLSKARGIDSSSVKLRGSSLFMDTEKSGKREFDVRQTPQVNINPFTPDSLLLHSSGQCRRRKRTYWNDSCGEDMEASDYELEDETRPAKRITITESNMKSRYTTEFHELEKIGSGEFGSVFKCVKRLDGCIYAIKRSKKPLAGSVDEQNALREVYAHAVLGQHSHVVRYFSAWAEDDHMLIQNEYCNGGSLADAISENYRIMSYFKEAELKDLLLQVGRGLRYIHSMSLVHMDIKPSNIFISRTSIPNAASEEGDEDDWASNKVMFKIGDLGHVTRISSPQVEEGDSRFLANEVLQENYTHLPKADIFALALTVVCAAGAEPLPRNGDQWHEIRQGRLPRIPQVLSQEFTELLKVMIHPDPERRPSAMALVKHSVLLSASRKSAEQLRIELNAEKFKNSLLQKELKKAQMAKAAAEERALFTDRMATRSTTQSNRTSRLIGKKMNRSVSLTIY
Chain of CYP2C9 (P11712 whole entry): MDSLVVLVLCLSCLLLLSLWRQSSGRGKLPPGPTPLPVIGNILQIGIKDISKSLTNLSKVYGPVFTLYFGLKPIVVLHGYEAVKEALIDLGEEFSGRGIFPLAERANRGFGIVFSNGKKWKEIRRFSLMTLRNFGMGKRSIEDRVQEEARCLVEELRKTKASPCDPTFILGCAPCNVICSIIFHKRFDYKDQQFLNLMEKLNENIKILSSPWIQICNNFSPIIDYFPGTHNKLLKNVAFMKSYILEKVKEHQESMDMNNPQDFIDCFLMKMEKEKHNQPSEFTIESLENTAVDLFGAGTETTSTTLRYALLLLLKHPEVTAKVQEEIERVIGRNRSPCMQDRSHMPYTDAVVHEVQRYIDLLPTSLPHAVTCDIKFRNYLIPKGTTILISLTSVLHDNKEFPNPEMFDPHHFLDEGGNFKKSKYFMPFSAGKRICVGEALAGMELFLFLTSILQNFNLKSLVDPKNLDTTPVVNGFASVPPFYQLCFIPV
Chain of CYP3A4 (P08684 whole entry): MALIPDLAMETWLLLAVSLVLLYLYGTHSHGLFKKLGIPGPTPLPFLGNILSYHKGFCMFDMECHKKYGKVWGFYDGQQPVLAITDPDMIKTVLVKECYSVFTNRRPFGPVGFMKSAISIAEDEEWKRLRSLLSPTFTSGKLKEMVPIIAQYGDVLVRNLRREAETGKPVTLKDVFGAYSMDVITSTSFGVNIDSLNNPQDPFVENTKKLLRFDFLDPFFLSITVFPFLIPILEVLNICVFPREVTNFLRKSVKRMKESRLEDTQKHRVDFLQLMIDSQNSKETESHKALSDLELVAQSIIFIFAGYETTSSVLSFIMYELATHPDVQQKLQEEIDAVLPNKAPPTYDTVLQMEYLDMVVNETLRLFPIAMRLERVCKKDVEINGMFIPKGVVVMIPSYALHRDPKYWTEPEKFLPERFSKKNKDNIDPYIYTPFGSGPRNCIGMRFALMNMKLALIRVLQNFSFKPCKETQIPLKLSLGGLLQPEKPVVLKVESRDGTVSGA
Chain of CYP2D6 (P10635 whole entry): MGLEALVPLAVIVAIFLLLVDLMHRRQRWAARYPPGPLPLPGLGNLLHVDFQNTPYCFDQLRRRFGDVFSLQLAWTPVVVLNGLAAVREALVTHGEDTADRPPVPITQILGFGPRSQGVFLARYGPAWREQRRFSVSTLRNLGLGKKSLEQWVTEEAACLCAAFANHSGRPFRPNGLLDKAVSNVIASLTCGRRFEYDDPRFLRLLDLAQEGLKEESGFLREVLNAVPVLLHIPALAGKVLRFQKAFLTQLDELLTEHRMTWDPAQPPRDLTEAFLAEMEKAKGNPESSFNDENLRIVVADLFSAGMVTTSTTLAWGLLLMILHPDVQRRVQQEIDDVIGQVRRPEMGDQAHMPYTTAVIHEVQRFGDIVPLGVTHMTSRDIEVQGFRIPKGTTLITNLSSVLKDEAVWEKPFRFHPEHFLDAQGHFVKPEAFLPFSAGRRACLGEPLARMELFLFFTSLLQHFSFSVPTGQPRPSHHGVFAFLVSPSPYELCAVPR
Chain of CYP2C19 (P33261 whole entry): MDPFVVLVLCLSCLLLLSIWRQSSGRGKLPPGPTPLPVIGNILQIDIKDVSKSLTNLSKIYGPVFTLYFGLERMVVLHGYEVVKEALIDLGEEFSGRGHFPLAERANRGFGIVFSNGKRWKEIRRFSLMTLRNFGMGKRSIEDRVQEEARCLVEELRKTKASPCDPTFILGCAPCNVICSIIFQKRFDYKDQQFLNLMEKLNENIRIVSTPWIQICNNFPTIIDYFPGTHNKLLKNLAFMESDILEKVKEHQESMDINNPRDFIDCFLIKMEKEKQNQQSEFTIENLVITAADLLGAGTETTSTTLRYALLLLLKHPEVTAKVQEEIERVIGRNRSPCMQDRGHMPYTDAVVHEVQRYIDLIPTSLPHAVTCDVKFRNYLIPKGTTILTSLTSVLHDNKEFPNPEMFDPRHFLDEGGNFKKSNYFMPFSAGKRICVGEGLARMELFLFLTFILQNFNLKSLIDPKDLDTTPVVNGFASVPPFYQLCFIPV

SMILES	pIC50 ([1]; read-out: Wee-1 IC50 activity)	pIC50 [2]	microsomal CLint at 1 μM [3] [µL/min/mg]	pIC50 [4]	hepatocyte CLint [5] [µL/min/1e6 cells]	hepatocyte CLint [6] [µL/min/1e6 cells]	bioavailability [7] [%]	pIC50 [1]	time dependent inhibition of CYP3A4: shift in IC50 [8] [fold]	time dependent inhibition of CYP2C9: shift in IC50 [9] [fold]	time dependent inhibition of CYP2C19: shift in IC50 [10] [fold]	time dependent inhibition of CYP2D6: shift in IC50 [11] [fold]
Cc1cn(-c2c(Cl)cccc2Cl)c(=O)c2cnc(Nc3ccc(N4CCNCC4)cc3)nc12 [Example 2, 6-(2,6-Dichlorophenyl)-8-methyl-2-((4-(piperazin-1-yl)phenyl)amino)pyrido[4,3-d]pyrimidin-5(6H)-one]	> 8.00	6.00 to 7.00	≤ 20	≤ 5.00	–	–	–	–	–	–	–	–
Cc1cc(Nc2ncc3c(=O)n(-c4c(Cl)cccc4Cl)ccc3n2)ccc1N1CCNCC1 [Example 7, 6-(2,6-Dichlorophenyl)-2-((3-methyl-4-(piperazin-1-yl)phenyl)amino)pyrido[4,3-d]pyrimidin-5(6H)-one]	> 8.00	≥ 7.00	≤ 20	5.00 to 6.00	< 20	< 40	> 25	–	–	–	–	–
CN1CCN(c2ccc(Nc3ncc4c(=O)n(-c5c(Cl)cccc5Cl)ccc4n3)cc2CO)CC1 [Example 8, 6-(2,6-Dichlorophenyl)-2-((3-(hydroxymethyl)-4-(4-methylpiperazin-1-yl)phenyl)amino)pyrido[4,3-d]pyrimidin-5(6H)-one]	> 8.00	6.00 to 7.00	≤ 20	–	< 20	< 40	–	–	–	–	–	–
CN1CCC(c2ccc(Nc3ncc4c(=O)n(-c5c(Cl)cccc5Cl)ccc4n3)cc2)CC1 [Example 10, 6-(2,6-Dichlorophenyl)-2-((4-(1-methylpiperidin-4-yl)phenyl)amino)pyrido[4,3-d]pyrimidin-5(6H)-one, HCl]	> 8.00	6.00 to 7.00	≤ 20	5.00 to 6.00	–	–	–	–	–	–	–	–
CN(C)CCc1ccc(Nc2ncc3c(=O)n(-c4c(Cl)cccc4Cl)ccc3n2)cc1 [Example 11, 6-(2,6-Dichlorophenyl)-2-((4-(2-(dimethylamino)ethyl)phenyl)amino)pyrido[4,3-d]pyrimidin-5(6H)-one, HCl]	6.70 to 8.00	6.00 to 7.00	> 20	5.00 to 6.00	–	–	–	–	–	–	–	–
COc1cc(Nc2ncc3c(=O)n(-c4c(Cl)cccc4Cl)ccc3n2)ccc1N1CCN(C)CC1 [Example 12, 6-(2,6-Dichlorophenyl)-2-((3-methoxy-4-(4-methylpiperazin-1-yl)phenyl)amino)pyrido[4,3-d]pyrimidin-5(6H)-one, HCl]	–	≥ 7.00	> 20	5.00 to 6.00	–	–	–	6.70 to 8.00	–	–	–	–
COc1cc(Nc2ncc3c(=O)n(-c4c(Cl)cccc4Cl)ccc3n2)ccc1N1CCNCC1 [Example 13, 6-(2,6-Dichlorophenyl)-2-((3-methoxy-4-(piperazin-1-yl)phenyl)amino)pyrido[4,3-d]pyrimidin-5(6H)-one, HCl]	> 8.00	≥ 7.00	≤ 20	≤ 5.00	< 20	< 40	> 25	–	< 2	< 2	< 2	< 2
CNCCOc1ccc(Nc2ncc3c(=O)n(-c4c(Cl)cccc4Cl)ccc3n2)cc1 [Example 16, 6-(2,6-Dichlorophenyl)-2-((4-(2-(methylamino)ethoxy)phenyl)amino)pyrido[4,3-d]pyrimidin-5(6H)-one, HCl]	–	6.00 to 7.00	≤ 20	≤ 5.00	–	–	–	6.70 to 8.00	–	–	–	–
CC(C)N1CCN(c2ccc(Nc3ncc4c(=O)n(-c5c(Cl)cccc5Cl)ccc4n3)cc2)CC1 [Example 17, 6-(2,6-Dichlorophenyl)-2-((4-(4-isopropylpiperazin-1-yl)phenyl)amino)pyrido[4,3-d]pyrimidin-5(6H)-one]	6.70 to 8.00	6.00 to 7.00	> 20	5.00 to 6.00	–	–	–	–	–	–	–	–
O=c1c2cnc(Nc3ccc(N4CCNCC4)c(CO)c3)nc2ccn1-c1c(Cl)cccc1Cl [Example 18, 6-(2,6-Dichlorophenyl)-2-((3-(hydroxymethyl)-4-(piperazin-1-yl)phenyl)amino)pyrido[4,3-d]pyrimidin-5(6H)-one]	> 8.00	≥ 7.00	≤ 20	≤ 5.00	< 20	< 40	–	–	–	–	–	–
O=c1c2cnc(Nc3ccc(N4CCOCC4)cc3)nc2ccn1-c1c(Cl)cccc1Cl [Example 19, 6-(2,6-Dichlorophenyl)-2-((4-morpholinophenyl)amino)pyrido[4,3-d]pyrimidin-5(6H)-one]	–	≤ 6.00	> 20	≤ 5.00	–	–	–	6.70 to 8.00	–	–	–	–
O=c1c2cnc(Nc3cc(F)c(N4CCNCC4)c(F)c3)nc2ccn1-c1c(Cl)cccc1Cl [Example 30, 6-(2,6-Dichlorophenyl)-2-((3,5-difluoro-4-(piperazin-1-yl)phenyl)amino)pyrido[4,3-d]pyrimidin-5(6H)-one]	6.70 to 8.00	≤ 6.00	≤ 20	–	–	–	–	–	–	–	–	–
